Measured values published in patent EP0863145A2, “Sunscreen compositions” (F. HOFFMANN-LA ROCHE AG, priority 1997, dated 1998).

Assay: Solubility in cosmetic solvents (Cétiol LC, Crodamol DA)
Format: physicochemical
Conditions: solvent Cétinol LC; chromatographed product
Description: Bezüglich der Lipophilität sind die erfindungsgemässen Verbindungen I den eingangs genannten substituierten Triazinen überlegen, indem alle Verbindungen I das im vorliegenden Fall nötige Kriterium, nämlich eine hohe Löslichkeit in kosmetischen Lösungsmitteln wie z.B. Deltyl extra (Isopropylmyristat), Arlanol E (PPG 15-Stearylether), Cétiol LC (Cocoylcapylat/-caprat) oder Crodamol DA (Diisopropyladipat) erfüllen, wie die nachfolgend beispielhaft aufgeführten Verbindungen der Formel I und deren Löslichkeiten in Cetiol LC und/oder in Crodamol DA zeigen (Tabelle II).

Row | SMILES | Löslichkeit in Cétinol LC [%]
1 | C[Si](C)(C)O[Si](C)(C)CCCCOc1ccc(-c2nc(-c3ccc(OCCCC[Si](C)(C)O[Si](C)(C)C)cc3O)nc(-c3ccc(OCCCC[Si](C)(C)O[Si](C)(C)C)cc3O)n2)c(O)c1 [Beispiel 10, 5,5',5''-Tris-[4-(1,1,1,3,3-pentamethyl-disiloxan-oxy)-butyl-1-oxy]-2,2',2''-(1.3.5)-triazin-2,4,6-triyl-tris-phenol] | 8
2 | C[Si](C)(C)O[Si](C)(C)CCCCCOc1ccc(-c2nc(-c3ccc(OCCCCC[Si](C)(C)O[Si](C)(C)C)cc3O)nc(-c3ccc(OCCCCC[Si](C)(C)O[Si](C)(C)C)cc3O)n2)c(O)c1 [Beispiel 9-1] | > 35
